Like-named read-outs stand apart in the source and are kept apart here. Numbered stars: 1 amine (or outer) side, 2 acyl side, 3 side chain; on linkers, the order of the positions; unused ones are H or OH. Square brackets hold non-standard residues; d marks the D form. Side chains are listed from the residue outwards. Ends that are not written are not given here. Peptide text beside a SMILES is read from it. * marks the point of attachment. C20 diacid = O=C(O)CCCCCCCCCCCCCCCCCCC(=O)*; γGlu = O=C(O)[C@H](CCC(=O)[*:2])N[*:1]; AEEA = NCCOCCOCC(=O)O; Aib = CC(C)(N)C(=O)O
B1: SEQ ID NO: 1 (peptide)
peptide: H[Aib]EGTFTSDVSRLK([AEEA-AEEA-γGlu-C20 diacid])EEAA[Aib]QRFLEHLV-NH2
modifications: also: K14 lipid also given as C18DA[γE][OEG][OEG]-
B2: SEQ ID NO: 5 (peptide)
peptide: H[Aib]EGTFTSDVSELK([AEEA-AEEA-γGlu-C20 diacid])E[Aib]AAQQRFLEHLV-NH2
B3: SEQ ID NO: 50 (peptide)
peptide: H[Aib]EGTFTSDVSRLK([AEEA-AEEA-γGlu-C20 diacid])E[Aib]AATQRFLEHLV-NH2
B4: SEQ ID NO: 51 (peptide)
peptide: H[Aib]EGTFTSDVSELK([AEEA-AEEA-γGlu-C20 diacid])EEAAEQRFLEHLV-NH2
B5: SEQ ID NO: 52 (peptide)
peptide: H[Aib]EGTFTSDVSRLK([AEEA-AEEA-γGlu-C20 diacid])EFAASQRFLEHLV-NH2
B6: SEQ ID NO: 53 (peptide)
peptide: H[Aib]EGTFTSDVSVLK([AEEA-AEEA-γGlu-C20 diacid])EEAATQRFLEHLV-NH2

Assays:
[1] = Turbidity of crude library peptides (absorbance at 600 nm); format: physicochemical; conditions: Physical stability of peptides
How it was run: (§1)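 Fibril formation is scored as average ThT fluorescence from duplicate samples monitored for 72 h at 40° C with shaking stress. Turbidity is the absorbance at 600 nm taken before heating. Peptide concentration was 267 μM at pH 4.0 or pH 7.0.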

[2] = Fibril formation of crude library peptides (Thioflavin T); format: physicochemical; set-up: key: average ThT fluorescence emission at 480 nm (ex 450 nm), raw units; conditions: Physical stability of peptides
How it was run: as §1

GLP1R = GLP1R (Homo sapiens, UniProt P43220); experiment: hGLP1R potency, cAMP accumulation in CHO-K1 cells stably overexpressing hGLP1R; format: cell-based; set-up: host or cells: CHO-K1; conditions: for Selectivity: SCTR EC50/GLP1R EC50 ratio; for EC50: cAMP accumulation, CHO-K1 cells overexpressing hGLP1R; for SCTR EC50/GLP1R EC50 ratio: selectivity for hGLP1R over hSCTR, cAMP accumulation in CHO-K1 cells
Sequence of GLP1R (P43220 24-463): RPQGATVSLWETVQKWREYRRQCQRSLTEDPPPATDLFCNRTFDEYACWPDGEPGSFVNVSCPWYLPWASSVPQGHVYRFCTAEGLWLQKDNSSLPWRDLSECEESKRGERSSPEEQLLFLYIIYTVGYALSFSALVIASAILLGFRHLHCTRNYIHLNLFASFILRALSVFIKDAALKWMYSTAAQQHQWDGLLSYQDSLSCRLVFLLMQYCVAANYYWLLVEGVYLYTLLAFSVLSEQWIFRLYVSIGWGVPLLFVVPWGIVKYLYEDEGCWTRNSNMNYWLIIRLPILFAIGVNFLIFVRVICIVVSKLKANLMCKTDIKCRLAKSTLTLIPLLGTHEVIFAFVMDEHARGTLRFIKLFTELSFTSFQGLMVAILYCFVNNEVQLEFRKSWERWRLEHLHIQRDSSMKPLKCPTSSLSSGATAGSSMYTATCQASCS
How it was run: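 In the presence of 0.5 mM IBMX, compounds stimulated the cells for 30 minutes at room temperature. Accumulated cAMP was then detected by TR-FRET, with EC50 values fitted by variable-slope nonlinear regression.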

SCTR = SCTR (Homo sapiens, UniProt P47872); experiment: hSCTR potency, cAMP accumulation in CHO-K1 cells stably overexpressing hSCTR; format: cell-based; set-up: alternatively Euroscreen ES-712-AF; FAST-0161L; host or cells: CHO-K1; conditions: cAMP accumulation, CHO-K1 cells overexpressing hSCTR
Sequence of SCTR (P47872 23-440): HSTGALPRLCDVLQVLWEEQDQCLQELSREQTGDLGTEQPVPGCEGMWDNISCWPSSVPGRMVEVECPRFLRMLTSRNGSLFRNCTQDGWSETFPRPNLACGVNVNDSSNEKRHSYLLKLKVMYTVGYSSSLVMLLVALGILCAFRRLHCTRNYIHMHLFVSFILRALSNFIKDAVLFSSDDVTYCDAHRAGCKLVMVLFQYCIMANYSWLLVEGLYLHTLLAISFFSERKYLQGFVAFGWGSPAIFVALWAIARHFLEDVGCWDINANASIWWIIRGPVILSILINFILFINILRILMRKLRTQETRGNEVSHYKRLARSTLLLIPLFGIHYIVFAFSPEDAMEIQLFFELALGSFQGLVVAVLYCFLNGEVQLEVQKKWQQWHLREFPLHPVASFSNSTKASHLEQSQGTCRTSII
How it was run: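 In this Gs cAMP assay, stably transfected CHO-K1 hSCTR cells were stimulated at room temperature for 30 min in IBMX-containing buffer. Time-resolved FRET gave the signal. Replicates were increased when the top concentration changed or EC50 values differed 5-fold.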

[3] = biological target: human GLP-1 receptor (hGLP1R) (human, UniProt P43220 24-463); experiment: cell-based or functional assay
[4] = biological target: human secretin receptor (hSCTR) (human, UniProt P47872 23-440); experiment: cell-based or functional assay
Sequence of human secretin receptor (hSCTR) (P47872 23-440): as above

[5] = read-out: pEC50 hGLPR1 (converted)
[6] = read-out: pEC50 hSCTR (converted)
[7] = read-out: hGLP1R pEC50 (converted)
[8] = read-out: hSCTR pEC50 (converted)

| Molecule | Turbidity (pH 7) [1] | Fibril formation [2] | Selectivity (GLP1R) | EC50 (GLP1R; [5]) | EC50 (SCTR; [6]) | EC50 (GLP1R; [7]) | SCTR EC50/GLP1R EC50 ratio (GLP1R) | EC50 (SCTR; [8]) | pEC50 hGLPR1 [3] | pEC50 hSCTR [4] |
| --- | --- | --- | --- | --- | --- | --- | --- | --- | --- | --- |
| CC(C)C[C@H](NC(=O)[C@H](Cc1ccccc1)NC(=O)[C@H](CCCNC(=N)N)NC(=O)[C@H](CCC(N)=O)NC(=O)[C@H](CCC(N)=O)NC(=O)[C@H](C)NC(=O)[C@H](C)NC(=O)[C@H](CCC(=O)O)NC(=O)[C@H](CCC(=O)O)NC(=O)[C@H](CCCCNC(=O)COCCOCCNC(=O)COCCOCCNC(=O)CC[C@H](NC(=O)CCCCCCCCCCCCCCCCCCC(=O)O)C(=O)O)NC(=O)[C@H](CC(C)C)NC(=O)[C@H](CCC(=O)O)NC(=O)[C@H](CO)NC(=O)[C@@H](NC(=O)[C@H](CC(=O)O)NC(=O)[C@H](CO)NC(=O)[C@@H](NC(=O)[C@H](Cc1ccccc1)NC(=O)[C@@H](NC(=O)CNC(=O)[C@H](CCC(=O)O)NC(=O)C(C)(C)NC(=O)[C@@H](N)Cc1c[nH]cn1)[C@@H](C)O)[C@@H](C)O)C(C)C)C(=O)N[C@@H](CCC(=O)O)C(=O)N[C@@H](Cc1c[nH]cn1)C(=O)N[C@@H](CC(C)C)C(=O)N[C@H](C(N)=O)C(C)C [compound 14] (H-H[Aib]EGTFTSDVSELK([AEEA-AEEA-γGlu-C20 diacid])EEAAQQRFLEHLV-NH2) | 0.08 | 10247 | 9917 | 0.02 nM | 200 nM |  |  |  |  |  |
| CC(C)C[C@H](NC(=O)[C@H](CCC(=O)O)NC(=O)[C@H](CCCCNC(=O)COCCOCCNC(=O)COCCOCCNC(=O)CC[C@H](NC(=O)CCCCCCCCCCCCCCCCCCC(=O)O)C(=O)O)NC(=O)[C@H](CC(C)C)NC(=O)[C@@H](NC(=O)[C@H](CO)NC(=O)[C@@H](NC(=O)[C@H](CC(=O)O)NC(=O)[C@H](CO)NC(=O)[C@@H](NC(=O)[C@H](Cc1ccccc1)NC(=O)[C@@H](NC(=O)CNC(=O)[C@H](CCC(=O)O)NC(=O)C(C)(C)NC(=O)[C@@H](N)Cc1c[nH]cn1)[C@@H](C)O)[C@@H](C)O)C(C)C)[C@@H](C)O)C(=O)N[C@@H](C)C(=O)N[C@@H](C)C(=O)NC(C)(C)C(=O)N[C@@H](CCC(N)=O)C(=O)N[C@@H](CCCNC(=N)N)C(=O)N[C@@H](Cc1ccccc1)C(=O)N[C@@H](CC(C)C)C(=O)N[C@@H](CCC(=O)O)C(=O)N[C@@H](Cc1c[nH]cn1)C(=O)N[C@@H](CC(C)C)C(=O)N[C@H](C(N)=O)C(C)C [compound 79] (H-H[Aib]EGTFTSDVSTLK([AEEA-AEEA-γGlu-C20 diacid])ELAA[Aib]QRFLEHLV-NH2) | 0.08 | 12190 | 30234 | 0.1 nM | 3160 nM |  |  |  |  |  |
| CC[C@H](C)[C@H](NC(=O)[C@H](Cc1ccccc1)NC(=O)[C@H](CCCNC(=N)N)NC(=O)[C@H](CCC(N)=O)NC(=O)[C@H](CC(C)C)NC(=O)[C@H](C)NC(=O)[C@H](C)NC(=O)CNC(=O)[C@H](CCC(=O)O)NC(=O)[C@H](CC(C)C)NC(=O)[C@H](CC(C)C)NC(=O)[C@H](CCC(=O)O)NC(=O)[C@H](CO)NC(=O)[C@@H]1CCCN1C(=O)[C@H](CC(=O)O)NC(=O)[C@H](CO)NC(=O)[C@@H](NC(=O)[C@H](Cc1ccccc1)NC(=O)[C@@H](NC(=O)CNC(=O)[C@H](CCC(=O)O)NC(=O)C(C)(C)NC(=O)[C@@H](N)Cc1c[nH]cn1)[C@@H](C)O)[C@@H](C)O)C(=O)N[C@@H](CCC(N)=O)C(=O)N[C@@H](Cc1c[nH]c2ccccc12)C(=O)N[C@@H](CC(C)C)C(=O)N[C@H](C(N)=O)C(C)C [compound 122] (H-H[Aib]EGTFTSDPSELLEGAALQRFIQWLV-NH2) | 0.08 | 3560 |  |  |  | 6.31 nM | 804 | 5010 nM |  |  |
| CC(C)C[C@H](NC(=O)[C@H](Cc1ccccc1)NC(=O)[C@H](CCCNC(=N)N)NC(=O)[C@H](CCC(N)=O)NC(=O)[C@H](C)NC(=O)[C@H](C)NC(=O)[C@H](C)NC(=O)[C@H](CCC(=O)O)NC(=O)[C@H](CCC(=O)O)NC(=O)[C@H](CCCCNC(=O)COCCOCCNC(=O)COCCOCCNC(=O)CC[C@H](NC(=O)CCCCCCCCCCCCCCCCCCC(=O)O)C(=O)O)NC(=O)[C@H](CC(C)C)NC(=O)[C@H](Cc1ccccc1)NC(=O)[C@H](CO)NC(=O)[C@@H](NC(=O)[C@H](CC(=O)O)NC(=O)[C@H](CO)NC(=O)[C@@H](NC(=O)[C@H](Cc1ccccc1)NC(=O)[C@@H](NC(=O)CNC(=O)[C@H](CCC(=O)O)NC(=O)C(C)(C)NC(=O)[C@@H](N)Cc1c[nH]cn1)[C@@H](C)O)[C@@H](C)O)C(C)C)C(=O)N[C@@H](CCC(=O)O)C(=O)N[C@@H](Cc1c[nH]cn1)C(=O)N[C@@H](CC(C)C)C(=O)N[C@H](C(N)=O)C(C)C [compound 63] (H-H[Aib]EGTFTSDVSFLK([AEEA-AEEA-γGlu-C20 diacid])EEAAAQRFLEHLV-NH2) | 0.09 | 9044 | 201002 | 0.0501 nM | 10000 nM |  |  |  |  |  |
| CC(C)C[C@H](NC(=O)[C@H](Cc1ccccc1)NC(=O)[C@H](CCCNC(=N)N)NC(=O)[C@H](CCC(N)=O)NC(=O)C(C)(C)NC(=O)C(C)(C)NC(=O)[C@H](C)NC(=O)[C@H](CCC(=O)O)NC(=O)[C@H](CCC(=O)O)NC(=O)[C@H](CCCCNC(=O)COCCOCCNC(=O)COCCOCCNC(=O)CC[C@H](NC(=O)CCCCCCCCCCCCCCCCCCC(=O)O)C(=O)O)NC(=O)[C@H](CC(C)C)NC(=O)[C@H](Cc1ccc(O)cc1)NC(=O)[C@H](CO)NC(=O)[C@@H](NC(=O)[C@H](CC(=O)O)NC(=O)[C@H](CO)NC(=O)[C@@H](NC(=O)[C@H](Cc1ccccc1)NC(=O)[C@@H](NC(=O)CNC(=O)[C@H](CCC(=O)O)NC(=O)C(C)(C)NC(=O)[C@@H](N)Cc1c[nH]cn1)[C@@H](C)O)[C@@H](C)O)C(C)C)C(=O)N[C@@H](CCC(=O)O)C(=O)N[C@@H](Cc1c[nH]cn1)C(=O)N[C@@H](CC(C)C)C(=O)N[C@H](C(N)=O)C(C)C [compound 152] (H-H[Aib]EGTFTSDVSYLK([AEEA-AEEA-γGlu-C20 diacid])EEA[Aib][Aib]QRFLEHLV-NH2) | 0.08 | 3105 |  |  |  | 0.0126 nM | 367578 | 3980 nM |  |  |
| CC(C)C[C@H](NC(=O)[C@H](Cc1ccccc1)NC(=O)[C@H](CCCNC(=N)N)NC(=O)[C@H](CCC(N)=O)NC(=O)[C@H](CCC(=O)O)NC(=O)[C@H](C)NC(=O)[C@H](C)NC(=O)[C@H](Cc1ccccc1)NC(=O)[C@H](CCC(=O)O)NC(=O)[C@H](CCCCNC(=O)COCCOCCNC(=O)COCCOCCNC(=O)CC[C@H](NC(=O)CCCCCCCCCCCCCCCCCCC(=O)O)C(=O)O)NC(=O)[C@H](CC(C)C)NC(=O)[C@H](CCCNC(=N)N)NC(=O)[C@H](CO)NC(=O)[C@@H](NC(=O)[C@H](CC(=O)O)NC(=O)[C@H](CO)NC(=O)[C@@H](NC(=O)[C@H](Cc1ccccc1)NC(=O)[C@@H](NC(=O)CNC(=O)[C@H](CCC(=O)O)NC(=O)C(C)(C)NC(=O)[C@@H](N)Cc1c[nH]cn1)[C@@H](C)O)[C@@H](C)O)C(C)C)C(=O)N[C@@H](CCC(=O)O)C(=O)N[C@@H](Cc1c[nH]cn1)C(=O)N[C@@H](CC(C)C)C(=O)N[C@H](C(N)=O)C(C)C [compound 72] (H-H[Aib]EGTFTSDVSRLK([AEEA-AEEA-γGlu-C20 diacid])EFAAEQRFLEHLV-NH2) | 0.08 | 96622 | 9251 | 0.1 nM | 1000 nM |  |  |  |  |  |
| B1 |  |  |  |  |  |  |  |  | 10.4 -log M | 6.8 -log M |
| B2 |  |  |  |  |  |  |  |  | 10.9 -log M | 7.1 -log M |
| B3 |  |  |  |  |  |  |  |  | 10.8 -log M | 7.3 -log M |
| B4 |  |  |  |  |  |  |  |  | 10.5 -log M | 5.7 -log M |
| B5 |  |  |  |  |  |  |  |  | 9.9 -log M | 6.4 -log M |
| B6 |  |  |  |  |  |  |  |  | 11.3 -log M | 7.2 -log M |

From patent US20260201008A1, “SECRETIN-DERIVED GLP1R SELECTIVE AGONISTS” (GUBRA A/S, priority 2023, published 2026)
